Values joined by “and” are separate entries in the source; they are usually repeats but may differ in a detail not shown here. Identical values can stand only once. Like-named read-outs stand apart in the source and are kept apart here.
Columns and labels:
[1] = Population PK modeling and simulation; design: species or system human
Experimental: Data processing and graphical visualization was performed using Matlab (version R2019a; The MathWorks, Inc., Natick, Massachusetts, United States).
The Stochastic Approximation of Expectation Maximization (SAEM) algorithm, a stochastic algorithm for calculating the maximum likelihood estimator, was selected as model-estimation method for its ability to accurately estimate population parameters.
Model building and selection was based on the following criteria/procedures: • Evaluation of individual and population parameter estimates and their precision (precision was quantified using the percentage of relative standard error (% RSE)); • Graphical examination of diagnostic and goodness-of-fit plots; • Analysis of correlation matrix of the estimates and condition number; • Reduction in both residual variability and inter-individual variability; and • Reduction in log likelihood (−2LL), Akaike Information Criterion (AIC) and Bayesian Information Criterion (BIC) for all nested models.
The base model was built by using these criteria to compare different structural models (e.g., one-compartment, two-compartment, three-compartment) with different absorption (e.g., zero order, first order) and elimination (e.g., linear, nonlinear) processes. Development of the base model was performed by adding inter-individual variability (IIV) on one structural parameter at a time and applying the set criteria to select the best model. IIV was generally modeled as an exponential term as follows:
A covariate model was then built to further reduce the unexplained inter-individual variability. Development of the covariate model was performed using the forward selection and backward elimination method. In the forward selection step, covariates were tested one at the time. […] In the backward elimination step, covariates were eliminated one at the time and changes in −2LL recorded.
The final model was evaluated using a visual predictive check, a simulation-based method to visually assess concordance of the model-based simulations and observed data. Bootstrap analysis was also performed to determine the precision of the parameter estimates, estimate confidence interval of identified parameters and assess the stability of the model. […]

[2] = 14-day rat neurotoxicology study: toxicokinetics; assay type: in vivo, Sprague-Dawley rats; conditions: for AUC / concentration at 15 day / Cmax: Sprague-Dawley, rat, plasma; for concentration at 15 day: read-out: plasma level at the time of sacrifice
Experimental: An appropriate amount of methylcellulose (MC) was weighed and mixed with a small amount of warm water for injection. The mixture was then diluted with water for injection to make a 0.5% (w/v) MC solution. The vehicle was used for dosing in the control group. To make a 40 mg/mL suspension of COMPOUND A, an appropriate amount of the test article was weighed and mixed with the vehicle using a planetary centrifugal mixer and the mixture was then diluted with additional vehicle. The 40 mg/mL suspension was used to make 20 and 10 mg/mL suspensions by stepwise dilutions with the vehicle. The dosing suspensions were stored in a refrigerator (actual values: 3.7° C. to 6.1° C., acceptable range: 2° C. to 8° C.) under light-resistant conditions (tight container) and used within 8 days after preparation.
Males and females in good condition were selected for this study based on examinations within 4 days before the first dosing. Based on their body weights, animals were stratified and allocated randomly to 3 main study groups, each composed of 18 males and 18 females, and 2 satellite groups each composed of 9 males and 9 females for determination of plasma drug and metabolite concentrations. Surplus animals after animal selection were excluded from the study on the day after the animal selection or the day dosing commenced (Day 1).
Referring to Tables 4A and 4B, the plasma concentrations of COMPOUND A on Days 2, 7, and 14 were determined in each satellite group. Blood samples (approximately 0.25 mL) were drawn without anesthesia from the subclavian vein of 3 animals of each sex in the satellite groups at each sampling point using sodium-heparinized syringes. Sampling points were as follows: pre-dose and at 1, 2, 4, 8, and 24 hours post-dose. In addition, the plasma concentrations of COMPOUND A before scheduled necropsy were determined in each main study group. The plasma samples (≥0.08 mL) in polypropylene tubes were frozen and stored in a freezer (actual values: −87.0° C. to −83.5° C.) until shipment with parallel quality control (QC) samples prepared by test site 2 and stored under the same conditions as study plasma samples in the test facility. The samples, including the parallel QC samples, were packed with dry ice and shipped to test site 2. The samples were stored frozen at −85.8° C. to −75.5° C. until assay. The plasma concentrations of COMPOUND A and its metabolites, were determined by liquid chromatography/tandem mass spectrometry (LC/MS/MS) and the TK parameters (tmax, Cmax, and AUC24 value) on Days 2, 7, and 14 were calculated for the satellite groups at test site 2.

[3] = final POPPK model, inter-individual variability
[4] = final POPPK model, residual error

Structure (SMILES): CC1=CN2CCS(=O)(=O)N=C2C(c2ccc(OC3CCCCC3)cc2)=N1 [COMPOUND A, 9-[4-(Cyclohexyloxy)phenyl]-7-methyl-3,4-dihydropyrazino[2,1-c][1,2,4]thiadiazine 2,2-dioxide]
- Additive Error, median bootstrap parameter estimate ([1]; bootstrap analysis): 0.34 SD
- CL/F_IIV, median bootstrap parameter estimate ([1]; bootstrap analysis): 61.97 % CV
- KA IIV, median bootstrap parameter estimate ([1]; bootstrap analysis): 97.18 % CV
- Proportional Error, median bootstrap parameter estimate ([1]; bootstrap analysis): 37.72 % CV
- TLag IIV, median bootstrap parameter estimate ([1]; bootstrap analysis): 67.78 % CV
- V/F_IIV, median bootstrap parameter estimate ([1]; bootstrap analysis): 33.27 % CV
- CL/F_IIV, population parameter estimate [1, 3]: 62.53 % CV
- KA IIV, population parameter estimate [1, 3]: 98.99 % CV
- TLag IIV, population parameter estimate [1, 3]: 69.17 % CV
- V/F_IIV, population parameter estimate [1, 3]: 33.77 % CV
- Additive Error, population parameter estimate [1, 4]: 0.35 SD
- Proportional Error, population parameter estimate [1, 4]: 37.56 % CV
- plasma level at the time of sacrifice ([2]; Day 15, females at 200 mg/kg/day not observed to convulse, no brain histopathology, individual animals, 200 mg/kg/day): 192 ng/mL and 968 ng/mL and 114 ng/mL
- plasma level at the time of sacrifice ([2]; Day 15, females at 200 mg/kg/day with lesions visible with Fluoro-Jade only, individual animals, 200 mg/kg/day): 138 ng/mL
- AUC ([2]; both sexes, oral, 100 mg/kg/day, NOAEL 100 mg/kg/day, read-out: NOAEL exposure cap (AUC) from the 14-day neurotoxicity study in rats): 17400 ng·h/mL
- concentration at 15 day ([2]; female, oral, 200 mg/kg/day, Day 15, female at 200 mg/kg/day with lesions visible with both HE and Fluoro-Jade, individual animal): 935 ng/mL
- concentration at 15 day ([2]; female, oral, 200 mg/kg/day, Day 15, females at 200 mg/kg/day with lesions visible with Fluoro-Jade only, individual animals): 182 ng/mL
- Cmax ([2]; female, po, 100 mg/kg/day, 100 mg/kg/day oral, female, Day 2): 1640 ng/mL
- AUC ([2]; female, po, 100 mg/kg/day, 100 mg/kg/day oral, female, Day 2, read-out: AUC24): 20500 ng·h/mL
- Cmax ([2]; female, po, 100 mg/kg/day, 100 mg/kg/day oral, female, Day 7): 1270 ng/mL
- AUC ([2]; female, po, 100 mg/kg/day, 100 mg/kg/day oral, female, Day 7, read-out: AUC24): 14900 ng·h/mL
- Cmax ([2]; female, po, 100 mg/kg/day, 100 mg/kg/day oral, female, Day 14): 1670 ng/mL
- AUC ([2]; female, po, 100 mg/kg/day, 100 mg/kg/day oral, female, Day 14, read-out: AUC24): 17800 ng·h/mL
- Cmax ([2]; female, po, 200 mg/kg/day, 200 mg/kg/day oral, female, Day 2): 1630 ng/mL
- AUC ([2]; female, po, 200 mg/kg/day, 200 mg/kg/day oral, female, Day 2, read-out: AUC24): 18000 ng·h/mL
- Cmax ([2]; female, po, 200 mg/kg/day, 200 mg/kg/day oral, female, Day 7): 2340 ng/mL
- AUC ([2]; female, po, 200 mg/kg/day, 200 mg/kg/day oral, female, Day 7, read-out: AUC24): 31800 ng·h/mL
- Cmax ([2]; female, po, 200 mg/kg/day, 200 mg/kg/day oral, female, Day 14): 2210 ng/mL
- AUC ([2]; female, po, 200 mg/kg/day, 200 mg/kg/day oral, female, Day 14, read-out: AUC24): 27600 ng·h/mL
- Cmax ([2]; male, po, 50 mg/kg/day, 50 mg/kg/day oral, male, Day 2): 836 ng/mL
- AUC ([2]; male, po, 50 mg/kg/day, 50 mg/kg/day oral, male, Day 2, read-out: AUC24): 9480 ng·h/mL
- Cmax ([2]; male, po, 50 mg/kg/day, 50 mg/kg/day oral, male, Day 7): 841 ng/mL
- AUC ([2]; male, po, 50 mg/kg/day, 50 mg/kg/day oral, male, Day 7, read-out: AUC24): 10700 ng·h/mL
- Cmax ([2]; male, po, 50 mg/kg/day, 50 mg/kg/day oral, male, Day 14): 728 ng/mL
- AUC ([2]; male, po, 50 mg/kg/day, 50 mg/kg/day oral, male, Day 14, read-out: AUC24): 8750 ng·h/mL
- Cmax ([2]; male, po, 100 mg/kg/day, 100 mg/kg/day oral, male, Day 2): 1200 ng/mL
- AUC ([2]; male, po, 100 mg/kg/day, 100 mg/kg/day oral, male, Day 2, read-out: AUC24): 15000 ng·h/mL
- Cmax ([2]; male, po, 100 mg/kg/day, 100 mg/kg/day oral, male, Day 7): 917 ng/mL
- AUC ([2]; male, po, 100 mg/kg/day, 100 mg/kg/day oral, male, Day 7, read-out: AUC24): 13000 ng·h/mL
- Cmax ([2]; male, po, 100 mg/kg/day, 100 mg/kg/day oral, male, Day 14): 1290 ng/mL
- AUC ([2]; male, po, 100 mg/kg/day, 100 mg/kg/day oral, male, Day 14, read-out: AUC24): 17000 ng·h/mL

From patent publication US20230338391A1, “TREATMENT FOR DEPRESSION” (TAKEDA PHARMACEUTICAL COMPANY LIMITED, priority 2020, published 2023)
